We go through four compounds from ChEMBL document CHEMBL1201862, “PubChem BioAssay data set” (2004).

Test systems include A498; EKVX; HCT-15; HOP-62; LOX IMVI; MOLT-4; Malme-3M; NCI-H522; NCI/ADR-RES; OVCAR-4; OVCAR-5; PC-3; RPMI-8226; SF-268; SF-295; SK-MEL-2; SNB-19; SNB-75; TK-10; U-251.
Holding throughout (experiment): NCI tumour cell line growth inhibition, 48 h

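Assay format: 96-well plates, 48-hour exposure. Here, GI50 denotes the concentration required for 50% inhibition of growth.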 The source made the active and inactive calls. Rule as the data show it: active = GI50 up to about 1.1 µM and inactive = higher.

For `C/C(=N\NC(=S)NCc1ccccc1)c1nc2cccnc2[nH]1`, the GI50 in the assay with A498 is 17.3 µM (inactive); in the assay with EKVX, 2.88 µM (inactive); with HCT-15, 4.45 µM; with HOP-62, 6.85 µM (inactive); in the assay with LOX IMVI, 6.12 µM (inactive); in the assay with MOLT-4, 3.44 µM (inactive). Also, the GI50 in the assay on Malme-3M is 13.4 µM (inactive); in the assay with NCI-H522, 15.1 µM (inactive); with NCI/ADR-RES, 9.98 µM (inactive); in the assay on OVCAR-4, 16.4 µM (inactive); in the assay on OVCAR-5, 7.23 µM (inactive); in the assay on PC-3 it was 8.95 µM (inactive). In addition, the GI50 in the assay with RPMI-8226 was 11.5 µM (inactive); in the assay with SF-268 it was 4.62 µM (inactive); with SF-295 it was 6.41 µM (inactive); in the assay with SK-MEL-2 it was 13.1 µM (inactive); in the assay with SNB-19, 6.49 µM (inactive); in the assay with SNB-75, 20.2 µM (inactive). Also, the GI50 in the assay on TK-10 is 15.2 µM (inactive); in the assay with U-251, 5.3 µM (inactive).

For `CC(=O)/C(C)=N/NC(=O)c1ccccc1O`, the GI50 in the assay with A498 was 47.9 µM (inactive); in the assay on EKVX, > 10 µM (inactive); in the assay with HCT-15, 97.5 µM; in the assay on HOP-62 it was > 10 µM (inactive); in the assay with LOX IMVI it was > 10 µM (inactive); with MOLT-4 it was 31.7 µM (inactive). Further, the GI50 in the assay on Malme-3M was > 10 µM (inactive); in the assay with NCI-H522, > 100 µM (inactive); with NCI/ADR-RES, > 100 µM (inactive); in the assay with OVCAR-4 it was > 10 µM (inactive); with OVCAR-5, > 10 µM (inactive); with PC-3, > 100 µM (inactive). Besides, the GI50 in the assay with RPMI-8226, with SF-268, in the assay on SF-295, with SK-MEL-2, in the assay on SNB-19 and with SNB-75 was > 10 µM (inactive) throughout. Further, the GI50 in the assay with TK-10 and in the assay on U-251 was > 10 µM (inactive) in each case.

Consider `O=C(c1ccccc1)c1ccc2nc3n(c2c1)C(c1c(F)cccc1F)SC3` (stereo not given), for which the GI50 is 3.7 µM (inactive) with A498; 3.56 µM (inactive) with EKVX; 3.16 µM in the assay with HCT-15; 8.81 µM (inactive) in the assay on HOP-62; 6.11 µM (inactive) in the assay with LOX IMVI; 2.74 µM (inactive) in the assay on MOLT-4. In addition, the GI50 in the assay with Malme-3M was 5.68 µM (inactive); in the assay on NCI-H522, 2.01 µM (inactive); in the assay on NCI/ADR-RES, 2.99 µM (inactive); in the assay with OVCAR-4 it was 7.8 µM (inactive); in the assay with OVCAR-5, 5.74 µM (inactive); in the assay on PC-3, 6.89 µM (inactive). The GI50 is 4.62 µM (inactive) with RPMI-8226; 9.66 µM (inactive) in the assay with SF-268; 3.2 µM (inactive) with SF-295; 8.3 µM (inactive) in the assay on SK-MEL-2; 4.98 µM (inactive) with SNB-19; 4.17 µM (inactive) in the assay on SNB-75. The GI50 with TK-10 is 22.9 µM (inactive); with U-251, 6.67 µM (inactive).

With `COc1ccc(C2C3=C(COC3=O)Oc3cc4c(cc32)OCO4)cc1OC` (stereo not given), the GI50 in the assay with A498 was 0.352 µM (active); in the assay on EKVX, 3.61 µM (inactive); in the assay with HCT-15 it was 0.397 µM; in the assay with HOP-62, 1.44 µM (inactive); in the assay on LOX IMVI, 0.65 µM (active); with MOLT-4, 0.466 µM (active). For the same compound, the GI50 in the assay on Malme-3M was 0.682 µM (active); with NCI-H522 it was 0.437 µM (active); in the assay on NCI/ADR-RES it was 0.33 µM (active); with OVCAR-4, 37.9 µM (inactive); with OVCAR-5, 8.97 µM (inactive); with PC-3, 0.521 µM (active). In addition, the GI50 in the assay on RPMI-8226 is 0.447 µM (active); in the assay with SF-268, 6.17 µM (inactive); with SF-295, 0.716 µM (active); with SK-MEL-2, 0.679 µM (active); in the assay with SNB-19 it was 0.716 µM (active); with SNB-75 it was 1.82 µM (inactive). Besides, the values for the GI50 in the assay with TK-10 and in the assay with U-251 were 12.1 µM (inactive) and 0.785 µM (active), respectively.
